Molecules are shown by their SMILES. The source made the active and inactive calls. No cut-off for these calls is given here.

Assay [1] deals with Plasmodium yoelii nigeriensis. As to the kind of experiment: Antimalarial activity as survivor numbers against multidrug-resistant Plasmodium yoelii nigeriensis infected Swiss mice (Mus musculus) at 96 mg/kg peroral dose at day 28. It is filed as functional, organism-based. Further details: dose 96 mg/kg.
Assay [2] concerns Plasmodium yoelii nigeriensis. As to the kind of experiment: Antimalarial activity as reduced parasitaemia against multidrug-resistant Plasmodium yoelii nigeriensis infected Swiss mice (Mus musculus) at 96mg/kg peroral dose at day 4. In kind it is functional. Also on record: scale not given: the % may be the effect or the level left.
The subject of assay [3] is Plasmodium yoelii nigeriensis. As to the kind of experiment: Antimalarial activity as reduced parasitaemia against multidrug-resistant Plasmodium yoelii nigeriensis infected Swiss mice (Mus musculus) at 96 mg/kg intramuscular dose at day 4. Further details: scale not given: the % may be the effect or the level left. In kind it is functional.
For assay [4], the system named is Plasmodium yoelii nigeriensis. The assay can be described thus: Antimalarial activity as survivor numbers against multidrug-resistant Plasmodium yoelii nigeriensis infected Swiss mice (Mus musculus) at 96 mg/kg intramuscular dose at day 28. It is filed as functional, organism-based. Also on record: dose 96 mg/kg.
For assay [5], the system named is Plasmodium yoelii nigeriensis. The assay can be described thus: Antimalarial activity as reduced parasitaemia against multidrug-resistant Plasmodium yoelii nigeriensis infected Swiss mice (Mus musculus) at 96 mg/kg peroral dose at day 28. In kind it is functional. Also on record: scale not given: the % may be the effect or the level left. As to conditions: route oral.

In assay [6] the test system is Plasmodium yoelii nigeriensis. The assay can be described thus: Antimalarial activity as survivor numbers against multidrug-resistant Plasmodium yoelii nigeriensis infected Swiss mice (Mus musculus) at 48 mg/kg peroral dose at day 28. In kind it is functional, organism-based. Further details: dose 48 mg/kg.
Assay [7] has as its system Plasmodium yoelii nigeriensis. The assay can be described thus: Antimalarial activity as reduced parasitaemia against multidrug-resistant Plasmodium yoelii nigeriensis infected Swiss mice (Mus musculus) at 48 mg/kg peroral dose at day 4. In kind it is functional. Further details: scale not given: the % may be the effect or the level left. As to conditions: route oral.

Consider `C=C(c1ccc(-c2ccccc2)cc1)C1CCOC2(CCC(Nc3ccc(C(F)(F)F)cc3)CC2)OO1` (mixture of isomers), for which the result in assay [1] and in assay [4] was inactive. Besides, the Activity was 68.3% in assay [2] and 75.84% in assay [3].
In the case of `C=C(c1ccccc1)C1CCOC2(CCC(=CC(=O)OCC)CC2)OO1` (mixture of isomers), the outcome in assay [1] and in assay [4] was inactive. In addition, the results for the Activity in assay [2] and in assay [3] were 88.76% and 43.58%, respectively.
As to `C=C(c1ccc(-c2ccccc2)cc1)C1CCOC2(CCC(=CC(=O)OCC)CC2)OO1` (mixture of isomers), the result in assay [1] and in assay [4] was inactive. Moreover, the Activity turned out to be 95.18% in assay [2] and 35.32% in assay [3].
`C=C(c1ccccc1)C1CCOC2(CCC(Nc3ccccc3)CC2)OO1` (mixture of isomers): the outcome in assay [1] and in assay [4] was inactive. Besides, the Activity worked out at 78.58% in assay [2] and 75.47% in assay [3].
As for `C=C(c1ccccc1)C1CCOC2(CCC(Nc3ccc(F)cc3)CC2)OO1` (mixture of isomers), the result in assay [1] and in assay [4] was inactive. In addition, the Activity in assay [2] came out at 63.18%; in assay [3], 50%.
Take `C=C(c1ccc(Cl)cc1)C1CCOC2(CCC(Nc3ccccc3)CC2)OO1` (mixture of isomers): the outcome in assay [1] and in assay [4] was inactive. Besides, the results for the Activity in assay [2] and in assay [3] were 98.49% and 32.07%, respectively.
`C=C(c1ccc(Cl)cc1)C1CCOC2(CCC(Nc3ccc(F)cc3)CC2)OO1` (mixture of isomers): the result in assay [1] and in assay [4] was inactive. For the same molecule, the values for the Activity in assay [2] and in assay [3] were 41.51% and 58.37%, respectively.
With `C=C(c1ccc(-c2ccccc2)cc1)C1CCOC2(CCC(Nc3ccccc3)CC2)OO1` (mixture of isomers), the Activity in assay [2] is given as 100%; in assay [3] it was 99.01%; in assay [5] it was 75%. In addition, the result in assay [4] was inactive.
On to `C=C(c1ccc(-c2ccccc2)cc1)C1CCOC2(CCC(Nc3ccc(F)cc3)CC2)OO1` (mixture of isomers), for which the result in assay [1] and in assay [4] was inactive. The figures for the Activity in assay [2] and in assay [3] were 98.08% and 57.69%, respectively.
Consider `C=C(c1ccc(Cl)cc1)C1CCOC2(CCC(=CC(=O)OCC)CC2)OO1` (mixture of isomers), for which the result in assay [1] and in assay [4] was inactive. Also, the Activity is on record as 85.87% in assay [2] and 41.11% in assay [3].
Regarding `C=C(c1ccc(Cl)cc1)C1CCOC2(CCC(Nc3ccc(C(F)(F)F)cc3)CC2)OO1` (mixture of isomers), the outcome in assay [1] and in assay [4] was inactive. The Activity is 87.17% in assay [2] and 73.36% in assay [3].
As to `C=C(c1ccccc1)C1CCOC2(CCC(Nc3ccc(C(F)(F)F)cc3)CC2)OO1` (mixture of isomers), the Activity in assay [2] came to 100%; in assay [3] it was 24.32%; in assay [5], 40%. The outcome in assay [4] was inactive.
With `CCO[C@H]1O[C@@H]2O[C@@]3(C)CC[C@H]4[C@H](C)CC[C@@H]([C@H]1C)[C@@]24OO3` [ARTEMOTIL], in assay [6], the result was Active. In assay [7], this molecule had an Activity of 100%.
